From patent US4309342A, “Antibacterial peptides” (Abbott Laboratories, priority 1980, dated 1982)

Assays:
Enterococcus 89 = test: Minimum inhibitory concentration, serial dilution in synthetic bacterial growth medium; assay type: cell-based; settings: 35-37 °C, 16-20 hours
Protocol: (§1) The above fluorinated dipeptides are prepared in sterile concentrated aqueous solutions. Serial dilutions are made to give a range of concentrations of the test substances. Samples of the dilutions are mixed with an appropriate sterile synthetic bacterial growth medium in test tubes. The tubes are then inoculated with an appropriate test organism and incubated at 35°-37° C. for 16-20 hours. […]

Staph. aureus (Smith) = test: In vivo mouse protection test (CD50, 7-day survival after intraperitoneal infection); design: species or system Charles River mice; settings: peptide alone, subcutaneous, e.g. 1 and 5 hours post-infection, mice infected i.p. with 10-100 x LD50 Staph. aureus (Smith)
Protocol: Charles River mice weighing approximately 20 g. each, were infected intraperitoneally with 10-100 times the LD50 of the infecting organism. At predetermined intervals post-infection, e.g., 1 and 5 hours, mice were dosed subcutaneously with graded doses of the new dipeptide, antibiotic and a combination thereof. The number of mice surviving each treatment for 7 days post-infection was observed and the CD50 is calculated. The results using D-cycloserine as an example of the antiobiotic and representative fluorinated dipeptides are shown in Table II, using Staph. aureus (Smith) as the infecting organism. The values are listed in mg./kg.

Bacillus subtilis 9466 = test: Minimum inhibitory concentration, serial dilution in synthetic bacterial growth medium; assay type: cell-based; settings: 35-37 °C, 16-20 hours, value in parentheses: a higher concentration did not always inhibit growth
Protocol: as §1

Strep. faecalis 10541 = test: as above; assay type: cell-based; settings: 35-37 °C, 16-20 hours, value in parentheses: a higher concentration did not always inhibit growth
Protocol: as §1

Staph. aureus Smith = test: as above; assay type: cell-based; settings: 35-37 °C, 16-20 hours, value in parentheses: a higher concentration did not always inhibit growth
Protocol: as §1

E. coli Juhl = test: as above; assay type: cell-based; settings: 35-37 °C, 16-20 hours, value in parentheses: a higher concentration did not always inhibit growth
Protocol: as §1

Kleb. pneumonise 8045 = test: as above; assay type: cell-based; settings: 35-37 °C, 16-20 hours, value in parentheses: a higher concentration did not always inhibit growth
Protocol: as §1

Shigella sonnei 9290 = test: as above; assay type: cell-based; settings: 35-37 °C, 16-20 hours, value in parentheses: a higher concentration did not always inhibit growth
Protocol: as §1

With `C[C@H](NC(=O)[C@H](N)CF)C(=O)O` [Example 1, β-fluoro-D-alanyl-L-alanine] the Minimum inhibitory concentration (Enterococcus 89) was 200 and the “CD50, Peptide” value (Staph. aureus (Smith)) was 9.4 mg/kg.
In the case of `N[C@H](CF)C(=O)N[C@@H](Cc1ccccc1)C(=O)O` [Example 2, β-fluoro-D-alanyl-L-phenylalanine], the Minimum inhibitory concentration (Bacillus subtilis 9466) is reported as 3.1, the Minimum inhibitory concentration (Enterococcus 89) is reported as 25 and the Minimum inhibitory concentration (Strep. faecalis 10541) is reported as 0.78. For the same compound, the “CD50, Peptide” value (Staph. aureus (Smith)) was 75 to 150 mg/kg.
`N[C@H](CF)C(=O)N[C@@H](CCC(=O)O)C(=O)O` [Example 3, βF-D-Ala-L-Glu] showed a Minimum inhibitory concentration (Bacillus subtilis 9466) of 3.1, a Minimum inhibitory concentration (Enterococcus 89) of 25 and a Minimum inhibitory concentration (Staph. aureus Smith) of 800. For the same compound, the Minimum inhibitory concentration (Strep. faecalis 10541) was 50.
In the case of `CC(C)C[C@H](NC(=O)[C@H](N)CF)C(=O)O` [Example 4, F-D-Ala-L-Leu], the Minimum inhibitory concentration (Bacillus subtilis 9466) is reported as 6.2, the Minimum inhibitory concentration (E. coli Juhl) is reported as 800 and the Minimum inhibitory concentration (Enterococcus 89) is reported as 25. The Minimum inhibitory concentration (Kleb. pneumonise 8045) was 800, the Minimum inhibitory concentration (Shigella sonnei 9290) was 800 and the Minimum inhibitory concentration (Staph. aureus Smith) was 800. It also gave a Minimum inhibitory concentration (Strep. faecalis 10541) of 3.1.
`CC(C)(NC(=O)[C@H](N)CF)C(=O)O` [Example 5, βF-D-Ala-Aibu] showed a Minimum inhibitory concentration (Enterococcus 89) of 25, a Minimum inhibitory concentration (Kleb. pneumonise 8045) of 800 and a Minimum inhibitory concentration (Staph. aureus Smith) of 800. It also gave a Minimum inhibitory concentration (Strep. faecalis 10541) of 800.
With `CC(C)[C@H](NC(=O)[C@H](N)CF)C(=O)O` [Example 6, βF-D-Ala-L-Val] the Minimum inhibitory concentration (E. coli Juhl) was 800, the Minimum inhibitory concentration (Enterococcus 89) was 6.2 and the Minimum inhibitory concentration (Kleb. pneumonise 8045) was 800. It also gave a Minimum inhibitory concentration (Staph. aureus Smith) of 800.
